Measurements reported in the NIST ThermoML archive (doi:10.1021/acs.jced.6b00526).
± gives the expanded uncertainty stated by the source.

Assay: refractive index (Na D-line) (dimensionless); xn = mol fraction of the nth substance listed
Settings: 100 kPa, Liquid, Standard Abbe refractometry

OCCO [1,2-ethanediol] + O
refractive index
Settings | x2 = 0 | x2 = 0.1593 | x2 = 0.2669 | x2 = 0.3496 | x2 = 0.4449 | x2 = 0.5563 | x2 = 0.6518 | x2 = 0.7482 | x2 = 0.8444
288.15 K | 1.432 ± 0.029 | 1.4278 ± 0.029 | 1.4239 ± 0.029 | 1.4202 ± 0.028 | 1.4152 ± 0.028 | 1.408 ± 0.028 | 1.3996 ± 0.028 | 1.3881 ± 0.028 | 1.3724 ± 0.027
293.15 K | 1.4306 ± 0.029 | 1.4263 ± 0.029 | 1.4225 ± 0.029 | 1.4188 ± 0.028 | 1.4138 ± 0.028 | 1.4067 ± 0.028 | 1.3984 ± 0.028 | 1.387 ± 0.028 | 1.3714 ± 0.027
298.15 K | 1.4294 ± 0.029 | 1.4251 ± 0.029 | 1.4212 ± 0.028 | 1.4176 ± 0.028 | 1.4126 ± 0.028 | 1.4055 ± 0.028 | 1.3973 ± 0.028 | 1.386 ± 0.028 | 1.3705 ± 0.027
303.15 K | 1.4282 ± 0.029 | 1.4239 ± 0.029 | 1.42 ± 0.028 | 1.4163 ± 0.028 | 1.4114 ± 0.028 | 1.4043 ± 0.028 | 1.3961 ± 0.028 | 1.3849 ± 0.028 | 1.3696 ± 0.027
308.15 K | 1.4269 ± 0.029 | 1.4225 ± 0.029 | 1.4187 ± 0.028 | 1.415 ± 0.028 | 1.4102 ± 0.028 | 1.4031 ± 0.028 | 1.3949 ± 0.028 | 1.3838 ± 0.028 | 1.3687 ± 0.027
313.15 K | 1.4257 ± 0.029 | 1.4213 ± 0.028 | 1.4174 ± 0.028 | 1.4138 ± 0.028 | 1.409 ± 0.028 | 1.4019 ± 0.028 | 1.3938 ± 0.028 | 1.3827 ± 0.028 | 1.3677 ± 0.027
318.15 K | 1.4244 ± 0.029 | 1.42 ± 0.028 | 1.4161 ± 0.028 | 1.4125 ± 0.028 | 1.4077 ± 0.028 | 1.4006 ± 0.028 | 1.3926 ± 0.028 | 1.3816 ± 0.028 | 1.3668 ± 0.027

OCCCO [propan-1,3-diol] + O
refractive index
Settings | x2 = 0 | x2 = 0.1737 | x2 = 0.2519 | x2 = 0.3669 | x2 = 0.4553 | x2 = 0.5501 | x2 = 0.6509 | x2 = 0.7532 | x2 = 0.8508
288.15 K | 1.4407 ± 0.029 | 1.4361 ± 0.029 | 1.4335 ± 0.029 | 1.429 ± 0.029 | 1.4248 ± 0.029 | 1.419 ± 0.028 | 1.4107 ± 0.028 | 1.3985 ± 0.028 | 1.381 ± 0.028
293.15 K | 1.4393 ± 0.029 | 1.4347 ± 0.029 | 1.4321 ± 0.029 | 1.4276 ± 0.029 | 1.4234 ± 0.029 | 1.4177 ± 0.028 | 1.4095 ± 0.028 | 1.3973 ± 0.028 | 1.38 ± 0.028
298.15 K | 1.438 ± 0.029 | 1.4334 ± 0.029 | 1.4308 ± 0.029 | 1.4263 ± 0.029 | 1.4221 ± 0.028 | 1.4165 ± 0.028 | 1.4083 ± 0.028 | 1.3962 ± 0.028 | 1.379 ± 0.028
303.15 K | 1.4367 ± 0.029 | 1.432 ± 0.029 | 1.4295 ± 0.029 | 1.425 ± 0.029 | 1.4208 ± 0.028 | 1.4152 ± 0.028 | 1.4071 ± 0.028 | 1.3951 ± 0.028 | 1.378 ± 0.028
308.15 K | 1.4353 ± 0.029 | 1.4306 ± 0.029 | 1.4281 ± 0.029 | 1.4236 ± 0.029 | 1.4194 ± 0.028 | 1.4139 ± 0.028 | 1.4059 ± 0.028 | 1.3939 ± 0.028 | 1.3771 ± 0.028
313.15 K | 1.434 ± 0.029 | 1.4294 ± 0.029 | 1.4268 ± 0.029 | 1.4223 ± 0.028 | 1.4181 ± 0.028 | 1.4127 ± 0.028 | 1.4047 ± 0.028 | 1.3929 ± 0.028 | 1.3761 ± 0.028
318.15 K | 1.4327 ± 0.029 | 1.4281 ± 0.029 | 1.4255 ± 0.029 | 1.421 ± 0.028 | 1.4169 ± 0.028 | 1.4115 ± 0.028 | 1.4036 ± 0.028 | 1.3918 ± 0.028 | 1.3752 ± 0.028

OCCCCO [1,4-butanediol] + O
refractive index
Settings | x2 = 0 | x2 = 0.152 | x2 = 0.2513 | x2 = 0.3534 | x2 = 0.4482 | x2 = 0.5515 | x2 = 0.6527 | x2 = 0.7501 | x2 = 0.8492 | x2 = 0.9488
288.15 K | 1.447 ± 0.029 | 1.4441 ± 0.029 | 1.4413 ± 0.029 | 1.4376 ± 0.029 | 1.4332 ± 0.029 | 1.4277 ± 0.029 | 1.4203 ± 0.028 | 1.4097 ± 0.028 | 1.3913 ± 0.028 | 1.3596 ± 0.027
293.15 K | 1.4455 ± 0.029 | 1.4425 ± 0.029 | 1.4397 ± 0.029 | 1.436 ± 0.029 | 1.4317 ± 0.029 | 1.4262 ± 0.029 | 1.4188 ± 0.028 | 1.4082 ± 0.028 | 1.39 ± 0.028 | 1.3586 ± 0.027
298.15 K | 1.4441 ± 0.029 | 1.4411 ± 0.029 | 1.4383 ± 0.029 | 1.4346 ± 0.029 | 1.4304 ± 0.029 | 1.4247 ± 0.029 | 1.4174 ± 0.028 | 1.4069 ± 0.028 | 1.3888 ± 0.028 | 1.3577 ± 0.027
303.15 K | 1.4426 ± 0.029 | 1.4395 ± 0.029 | 1.4368 ± 0.029 | 1.4331 ± 0.029 | 1.4289 ± 0.029 | 1.4232 ± 0.029 | 1.416 ± 0.028 | 1.4056 ± 0.028 | 1.3876 ± 0.028 | 1.3569 ± 0.027
308.15 K | 1.4412 ± 0.029 | 1.4381 ± 0.029 | 1.4353 ± 0.029 | 1.4316 ± 0.029 | 1.4274 ± 0.029 | 1.4219 ± 0.028 | 1.4147 ± 0.028 | 1.4044 ± 0.028 | 1.3865 ± 0.028 | 1.356 ± 0.027
313.15 K | 1.4398 ± 0.029 | 1.4367 ± 0.029 | 1.4339 ± 0.029 | 1.4302 ± 0.029 | 1.426 ± 0.029 | 1.4205 ± 0.028 | 1.4134 ± 0.028 | 1.4031 ± 0.028 | 1.3853 ± 0.028 | 1.3552 ± 0.027
318.15 K | 1.4384 ± 0.029 | 1.4352 ± 0.029 | 1.4324 ± 0.029 | 1.4288 ± 0.029 | 1.4246 ± 0.029 | 1.4191 ± 0.028 | 1.412 ± 0.028 | 1.4018 ± 0.028 | 1.3842 ± 0.028 | 1.3543 ± 0.027

OCCCCCO [1,5-pentanediol] + O
refractive index
Settings | x2 = 0 | x2 = 0.1235 | x2 = 0.2586 | x2 = 0.3455 | x2 = 0.4864 | x2 = 0.5755 | x2 = 0.6777 | x2 = 0.7611 | x2 = 0.8474 | x2 = 0.9205
288.15 K | 1.4503 ± 0.029 | 1.4493 ± 0.029 | 1.4477 ± 0.029 | 1.4463 ± 0.029 | 1.4425 ± 0.029 | 1.4401 ± 0.029 | 1.4342 ± 0.029 | 1.4253 ± 0.029 | 1.4085 ± 0.028 | 1.3851 ± 0.028
293.15 K | 1.449 ± 0.029 | 1.4477 ± 0.029 | 1.4462 ± 0.029 | 1.4447 ± 0.029 | 1.4411 ± 0.029 | 1.4386 ± 0.029 | 1.4328 ± 0.029 | 1.4239 ± 0.029 | 1.4073 ± 0.028 | 1.384 ± 0.028
298.15 K | 1.4478 ± 0.029 | 1.4464 ± 0.029 | 1.4447 ± 0.029 | 1.4432 ± 0.029 | 1.4396 ± 0.029 | 1.4371 ± 0.029 | 1.4315 ± 0.029 | 1.4225 ± 0.029 | 1.406 ± 0.028 | 1.3828 ± 0.028
303.15 K | 1.4466 ± 0.029 | 1.4448 ± 0.029 | 1.4431 ± 0.029 | 1.4416 ± 0.029 | 1.438 ± 0.029 | 1.4355 ± 0.029 | 1.43 ± 0.029 | 1.4211 ± 0.028 | 1.4048 ± 0.028 | 1.3816 ± 0.028
308.15 K | 1.4454 ± 0.029 | 1.4434 ± 0.029 | 1.4416 ± 0.029 | 1.4402 ± 0.029 | 1.4367 ± 0.029 | 1.4341 ± 0.029 | 1.4286 ± 0.029 | 1.4197 ± 0.028 | 1.4035 ± 0.028 | 1.3804 ± 0.028
313.15 K | 1.4441 ± 0.029 | 1.4419 ± 0.029 | 1.44 ± 0.029 | 1.4386 ± 0.029 | 1.4352 ± 0.029 | 1.4326 ± 0.029 | 1.4271 ± 0.029 | 1.4183 ± 0.028 | 1.4022 ± 0.028 | 1.3793 ± 0.028
318.15 K | 1.443 ± 0.029 | 1.4408 ± 0.029 | 1.4386 ± 0.029 | 1.4373 ± 0.029 | 1.434 ± 0.029 | 1.4313 ± 0.029 | 1.4259 ± 0.029 | 1.4171 ± 0.028 | 1.401 ± 0.028 | 1.3781 ± 0.028
